One experiment deals with ER beta (Homo sapiens, UniProt Q92731). The experiment is described as follows: competition binding assay against a model linear peptide sequence (estrogen receptor-coactivator interaction), ER beta. How it is done:
(§1) The synthetic helicormimetic peptides designed as antagonists of the estrogen receptor-coactivator interactions were tested in a competition binding assay (Lilly Research Labs) against a model linear peptide sequence. Activities are reported in the Table below in Ki values, with two of the best analogs labeled as PERM-1 and PERM-2, or Peptidomimetic Estrogen Receptor Modulators.

For the next experiment, the target named is T1, ER alpha (Homo sapiens, UniProt P03372).
T1 sequence (P03372 1-595): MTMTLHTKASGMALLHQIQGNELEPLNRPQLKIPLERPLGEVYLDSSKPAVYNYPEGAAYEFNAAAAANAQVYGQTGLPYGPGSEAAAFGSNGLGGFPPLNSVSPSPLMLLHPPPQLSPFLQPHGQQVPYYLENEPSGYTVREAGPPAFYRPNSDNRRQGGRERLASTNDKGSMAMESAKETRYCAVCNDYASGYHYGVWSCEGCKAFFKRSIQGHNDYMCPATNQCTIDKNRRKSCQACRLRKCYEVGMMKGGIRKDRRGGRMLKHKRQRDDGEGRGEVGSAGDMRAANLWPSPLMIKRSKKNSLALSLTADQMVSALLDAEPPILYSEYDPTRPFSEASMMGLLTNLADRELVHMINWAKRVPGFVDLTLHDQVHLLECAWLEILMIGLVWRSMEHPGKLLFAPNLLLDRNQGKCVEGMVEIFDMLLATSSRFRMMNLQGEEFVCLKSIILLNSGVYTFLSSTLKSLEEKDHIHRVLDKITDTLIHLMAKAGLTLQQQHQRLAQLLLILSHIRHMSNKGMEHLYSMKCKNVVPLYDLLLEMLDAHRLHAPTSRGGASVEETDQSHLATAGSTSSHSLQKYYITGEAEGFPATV
The experiment is described as follows: competition binding assay against a model linear peptide sequence (estrogen receptor-coactivator interaction), ER alpha. How it is done: as §1

The test system of another experiment is estrogen receptors. The experiment is described as follows: inhibition of the binding of the estrogen receptors to the helical segment of coactivator proteins. To be noted: result in words. How it is done: as §1
[1] abbreviates: competition binding assay (Lilly Research Labs), read-out: Ki ER β.
Where [2] appears, read: competition binding assay (Lilly Research Labs), read-out: Ki ER α.

Data on 15 molecules can be found in US20050054770A1, “Helicomimetics and stabilized lxxll peptidomimetics” (priority 2001, published 2005).

Usually pKi stands for the negative decadic logarithm of the Ki, by convention in mol/L.

pKi: −log10 of the molar value. Like-named read-outs stand apart in the source and are kept apart here. Positions of bridges follow the written chain, without caps; N, C: chain ends. Non-standard residues stand in square brackets, D forms with d. Residues, ends and D or L forms follow the SMILES beside them. dPen = CC(C)(S)[C@@H](N)C(=O)O; Pen = CC(C)(S)[C@H](N)C(=O)O; d(hCys) = N[C@H](CCS)C(=O)O; hCys = N[C@@H](CCS)C(=O)O; Aib = CC(C)(N)C(=O)O

ER beta, sequence (Q92731 whole entry): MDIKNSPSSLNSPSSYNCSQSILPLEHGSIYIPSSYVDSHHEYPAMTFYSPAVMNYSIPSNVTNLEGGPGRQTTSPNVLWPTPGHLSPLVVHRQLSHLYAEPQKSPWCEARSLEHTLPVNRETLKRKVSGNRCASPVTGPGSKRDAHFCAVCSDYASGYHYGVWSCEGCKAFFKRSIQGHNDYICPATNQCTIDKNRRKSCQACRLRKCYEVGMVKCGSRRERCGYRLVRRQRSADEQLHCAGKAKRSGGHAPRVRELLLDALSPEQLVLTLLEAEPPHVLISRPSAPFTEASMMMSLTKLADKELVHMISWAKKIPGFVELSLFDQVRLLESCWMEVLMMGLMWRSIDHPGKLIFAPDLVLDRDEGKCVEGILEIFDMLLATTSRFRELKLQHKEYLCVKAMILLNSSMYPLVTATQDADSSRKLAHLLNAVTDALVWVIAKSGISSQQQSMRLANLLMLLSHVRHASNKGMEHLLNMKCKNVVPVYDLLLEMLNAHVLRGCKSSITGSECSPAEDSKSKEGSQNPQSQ

Turning to `CC(C)C[C@H](NC(=O)[C@H](CC(C)C)NC(=O)[C@H](CCCNC(=N)N)NC(=O)[C@H]1CSSC[C@H](NC(=O)[C@@H](N)CCCCN)C(=O)N[C@@H](CC(C)C)C(=O)N1)C(=O)N[C@@H](CCC(N)=O)C(N)=O` [AKG-I-63, H-Lys-cyclo(Cys-Leu-D-Cys)-Arg-Leu-Leu-Gln-NH2] (H-KCL[dC]RLLQ-NH2; disulfide 2-4), the pKi is 5.10 at ER beta (setting [1]) and 5.66 at ER alpha (setting [2]).

With `CC(C)C[C@H](NC(=O)[C@H](CC(C)C)NC(=O)[C@H](CCCNC(=N)N)NC(=O)[C@H]1CSSC[C@@H](NC(=O)[C@@H](N)CCCCN)C(=O)N[C@@H](CC(C)C)C(=O)N1)C(=O)N[C@@H](CCC(N)=O)C(N)=O` [AKG-I-64, H-Lys-cyclo(D-Cys-Leu-D-Cys)-Arg-Leu-Leu-Gln-NH2] (H-K[dC]L[dC]RLLQ-NH2; disulfide 2-4), the pKi at ER beta (setting [1]) was 5.28; on ER alpha (setting [2]), 5.74.

Turning to `CC[C@H](C)[C@@H]1NC(=O)[C@H](CC(C)C)NC(=O)[C@H](NC(=O)[C@@H](N)CCCNC(=N)N)CSSC[C@@H](C(=O)N[C@@H](CCCNC(=N)N)C(=O)N[C@@H](CC(C)C)C(=O)N[C@@H](CC(C)C)C(=O)N[C@@H](CCC(N)=O)C(N)=O)NC1=O` [AKG-II-1, H-Arg-cyclo (D-Cys-Leu-Ile-Cys)-Arg-Leu-Leu-Gln-NH2] (H-R[dC]LICRLLQ-NH2; disulfide 2-5), the pKi at ER beta (setting [1]) was 6.67; on ER alpha (setting [2]), 7.89.

Consider `CC[C@H](C)[C@@H]1NC(=O)[C@H](NC(=O)[C@@H](N)CCCNC(=N)N)CSSCC[C@@H](C(=O)N[C@@H](CCCNC(=N)N)C(=O)N[C@@H](CC(C)C)C(=O)N[C@@H](CC(C)C)C(=O)N[C@@H](CCC(N)=O)C(N)=O)NC(=O)[C@H](CC(C)C)NC1=O` [AKG-II-3, H-Arg-cyclo (D-Cys-Ile-Leu-HomoCys)-Arg-Leu-Leu-Gln-NH2] (H-R[dC]IL[hCys]RLLQ-NH2; disulfide 2-5), for which the pKi at ER beta (setting [1]) was 6.67; on ER alpha (setting [2]), 7.89.

Consider `CC[C@H](C)[C@@H]1NC(=O)[C@H](NC(=O)[C@@H](N)CCCNC(=N)N)CCSSC[C@@H](C(=O)N[C@@H](CCCNC(=N)N)C(=O)N[C@@H](CC(C)C)C(=O)N[C@@H](CC(C)C)C(=O)N[C@@H](CCC(N)=O)C(N)=O)NC(=O)[C@H](CC(C)C)NC1=O` [AKG-II-4, H-Arg-cyclo (DHomoCys-lIe-Leu-Cys)- Arg-Leu-Leu-Gln-NH2] (H-R[d(hCys)]ILCRLLQ-NH2; disulfide 2-5), for which the pKi was 6.23 on ER beta (setting [1]) and 7.46 on ER alpha (setting [2]).

With `CC[C@H](C)[C@@H]1NC(=O)[C@@H](NC(=O)[C@@H](N)CCCNC(=N)N)CSSC[C@@H](C(=O)N[C@@H](CC(C)C)C(=O)N[C@@H](CC(C)C)C(=O)N[C@@H](CCC(N)=O)C(N)=O)NC(=O)[C@H](CCCNC(=N)N)NC(=O)[C@H](CC(C)C)NC1=O` [AKG-II-8, H-Arg-cyclo (Cys-Ile-Leu-Arg-Cys)-Leu-Leu-Gln-NH2] (H-RCILRCLLQ-NH2; disulfide 2-6), the pKi was 5.94 on ER beta (setting [1]) and 6.76 on ER alpha (setting [2]).

On to `CC[C@H](C)[C@@H]1NC(=O)[C@H](NC(=O)[C@@H](N)CCCNC(=N)N)C(C)(C)SSC[C@@H](C(=O)N[C@@H](CCCNC(=N)N)C(=O)N[C@@H](CC(C)C)C(=O)N[C@@H](CC(C)C)C(=O)N[C@@H](CCC(N)=O)C(N)=O)NC(=O)[C@H](CC(C)C)NC1=O` [AKG-II-9, H-Arg-cyclo (D-Pen-Ile-Leu-Cys)-Arg-Leu-Leu-Gln-NH2] (H-R[dPen]ILCRLLQ-NH2; disulfide 2-5), for which the pKi is 6.03 at ER beta (setting [1]) and 6.77 on ER alpha (setting [2]).

Regarding `CC[C@H](C)[C@@H]1NC(=O)[C@H](NC(=O)[C@@H](N)CCCNC(=N)N)CSSC(C)(C)[C@@H](C(=O)N[C@@H](CCCNC(=N)N)C(=O)N[C@@H](CC(C)C)C(=O)N[C@@H](CC(C)C)C(=O)N[C@@H](CCC(N)=O)C(N)=O)NC(=O)[C@H](CC(C)C)NC1=O` [AKG-II-10, H-Arg-cyclo (D-Cys-Ile-Leu-Pen)-Arg-Leu-Leu-Gln-NH2] (H-R[dC]IL[Pen]RLLQ-NH2; disulfide 2-5), the pKi on ER beta (setting [1]) was 5.72; at ER alpha (setting [2]) it was 7.06.

As to `CC[C@H](C)[C@@H]1NC(=O)[C@H](NC(=O)[C@@H](N)CCCNC(=N)N)C(C)(C)SSC(C)(C)[C@@H](C(=O)N[C@@H](CCCNC(=N)N)C(=O)N[C@@H](CC(C)C)C(=O)N[C@@H](CC(C)C)C(=O)N[C@@H](CCC(N)=O)C(N)=O)NC(=O)[C@H](CC(C)C)NC1=O` [AKG-II-11, H-Arg-cyclo(D-Pen-Ile-Leu-Pen)-Arg-Leu-Leu-Gln-NH2] (H-R[dPen]IL[Pen]RLLQ-NH2; disulfide 2-5), the pKi on ER beta (setting [1]) is 5.40; at ER alpha (setting [2]), 7.11.

Consider `CC[C@H](C)[C@@H]1NC(=O)[C@H](NC(=O)[C@@H](N)CCCCN)CSSC[C@@H](C(=O)N[C@@H](CCCNC(=N)N)C(=O)N[C@@H](CC(C)C)C(=O)N[C@@H](CC(C)C)C(=O)N[C@@H](CCC(N)=O)C(N)=O)NC(=O)[C@H](CC(C)C)NC1=O` [AML-I-48/4, H-Lys-cyclo (D-Cys-Ile-Leu-Cys)-Arg-Leu-Leu-Gln-NH2] (H-K[dC]ILCRLLQ-NH2; disulfide 2-5), for which the pKi at ER beta (setting [1]) was 6.41; on ER beta (read-out: Ki value against ER beta), ~6.41; on ER alpha (read-out: Ki value against ER alpha), 7.60. For the same molecule, at ER alpha (from Ki values against ER alpha and ER beta), the “selectivity ER alpha versus ER beta” value is on record as “exhibits selectivity against the ER alpha receptor”.

For `CC[C@H](C)[C@H](NC(=O)[C@H](CCCCN)NC(=O)[C@@H](N)CCCCN)C(=O)N[C@@H](CC(C)C)C(=O)N[C@@H](Cc1c[nH]cn1)C(=O)N[C@@H](CCCNC(=N)N)C(=O)N[C@@H](CC(C)C)C(=O)N[C@@H](CC(C)C)C(=O)N[C@@H](CCC(N)=O)C(N)=O` [AML-I-61/2, H-Lys-Lys-Ile-Leu-His-Arg-Leu-Leu-Gln-NH2] (H-KKILHRLLQ-NH2), the pKi at ER beta (setting [1]) is 5.55; on ER alpha (setting [2]), 6.77.

As for `CC[C@H](C)[C@@H]1NC(=O)[C@H](NC(=O)[C@H](CCCCN)NC(C)=O)CSSC[C@@H](C(=O)N[C@@H](CCCNC(=N)N)C(=O)N[C@@H](CC(C)C)C(=O)N[C@@H](CC(C)C)C(=O)N[C@@H](CCC(N)=O)C(N)=O)NC(=O)[C@H](CC(C)C)NC1=O` [AML-I-71/2, Ac-Lys-cyclo(D-Cys-Ile-Leu-Cys)-Arg-Leu-Leu-Gln-NH2] (Ac-K[dC]ILCRLLQ-NH2; disulfide 2-5), the pKi on ER beta (setting [1]) is 5.11; at ER alpha (setting [2]), 6.92.

Take `CC[C@H](C)[C@@H]1NC(=O)[C@H](NC(=O)[C@H](CCCCN)NC(=O)C(C)(C)N)CSSC[C@@H](C(=O)N[C@@H](CCCNC(=N)N)C(=O)N[C@@H](CC(C)C)C(=O)N[C@@H](CC(C)C)C(=O)N[C@@H](CCC(N)=O)C(N)=O)NC(=O)[C@H](CC(C)C)NC1=O` [AML-I-83/4, Aib-Lys-cyclo(D-Cys-Ile-Leu-Cys)-Arg-Leu-Leu-Gln-NH2] (H-[Aib]K[dC]ILCRLLQ-NH2; disulfide 3-6; N-terminus assumed): the values for the pKi at ER beta (setting [1]) and on ER alpha (setting [2]) were 5.85 and 6.89, respectively.

With `CC[C@H](C)[C@H](NC(=O)[C@H](CCCCN)NC(=O)[C@H](Cc1c[nH]cn1)NC(=O)[C@@H](N)CCCCN)C(=O)N[C@@H](CC(C)C)C(=O)N[C@@H](Cc1c[nH]cn1)C(=O)N[C@@H](CCCNC(=N)N)C(=O)N[C@@H](CC(C)C)C(=O)N[C@@H](CC(C)C)C(=O)N[C@@H](CCC(N)=O)C(=O)N[C@@H](CC(=O)O)C(=O)N[C@@H](CO)C(=O)N[C@@H](CO)C(=O)O` [AML-I-89/2, H-Lys-His-Lys-Ile-Leu-His-Arg-Leu-Leu-Gln-Asp-Ser-Ser-OH] (H-KHKILHRLLQDSS-OH), the figures for the pKi at ER beta (setting [1]) and on ER alpha (setting [2]) were 5.16 and 6.42, respectively.

As for “Leu-Asn-Gln-Leu-Leu (LNQLL; printed: Leu-Asn-Gln-Leu-Leu)”, in the experiment on estrogen receptors, the “inhibitory activity on binding of estrogen receptors to helical segment of coactivator proteins” value is on record as “do not display any inhibitory activity”.
